Test results published in the supplement of paper PMC10331698.
± gives the standard deviation of the averaged measurements.

Key:
Assay in all cases: level (log10 ratio to DMSO vehicle control); higher = higher biomarker level / cell amount than vehicle control
Settings in all cases: in DMSO
[1] = compound: FC(F)(F)C(F)(F)C(F)(F)C(F)(F)C(F)(F)C(F)(F)CC1CO1 [3-(Perfluorohexyl)-1,2-epoxypropane]
Experimental: (§1)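 BioMAP Diversity Plus panel of 12 human primary cell co-culture systems (3C, 4H, LPS, SAg, BT, BF4T, BE3C, CASM3C, HDF3CGF, KF3CT, MyoF, Mphg). Compounds were added 1 h before stimulation and left for 24 h (MyoF 48 h; BT 72 h for soluble read-outs or 6 d for IgG). Biomarkers were read by ELISA, cytotoxicity by SRB, PBMC viability and proliferation by Alamar Blue. Each well value was divided by the mean of 8 DMSO control wells on the same plate and log10 transformed; duplicate blinded samples were tested at 4 concentrations.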

[2] = compound: FC(F)(F)C(F)(F)CNCC(F)(F)C(F)(F)F [Bis(1H,1H-perfluoropropyl)amine]
Experimental: as §1

[3] = compound: NC(=O)C(F)(F)C(F)(F)C(F)(F)C(F)(F)C(N)=O [Octafluoroadipamide]
Experimental: as §1

[4] = compound: NC(=O)C(F)(F)C(F)(F)C(F)(F)C(F)F
Experimental: as §1

[5] = compound: O=S(=O)(O)CCC(F)(F)C(F)(F)C(F)(F)C(F)(F)C(F)(F)C(F)(F)F [6:2 Fluorotelomer sulfonic acid]
Experimental: as §1

BE3C:MMP-9
level (log10) ([1]; 6700 nM): -0.036 ± 0.0042
level (log10) ([1]; 20000 nM): -0.036
level (log10) ([1]; 60000 nM): -0.004 ± 0.042
level (log10) ([2]; 6700 nM): -0.026 ± 0.0042
level (log10) ([2]; 20000 nM): -0.0175 ± 0.011
level (log10) ([2]; 60000 nM): 0.009 ± 0.042
level (log10) ([3]; 6700 nM): -0.024 ± 0.021
level (log10) ([3]; 20000 nM): -0.0235 ± 0.015
level (log10) ([3]; 60000 nM): 0.0015 ± 0.029
level (log10) ([4]; 6700 nM): -0.007 ± 0.0014
level (log10) ([4]; 20000 nM): -0.0045 ± 0.0092
level (log10) ([4]; 60000 nM): 0.0095 ± 0.023
level (log10) ([5]; 6700 nM): -0.004 ± 0.021
level (log10) ([5]; 20000 nM): -0.0045 ± 0.0078
level (log10) ([5]; 60000 nM): 0.016 ± 0.021

BE3C:PAI-I
level (log10) ([1]; 6700 nM): -0.003 ± 0.0014
level (log10) ([1]; 20000 nM): -0.006 ± 0.0028
level (log10) ([1]; 60000 nM): 0.013 ± 0.0099
level (log10) ([2]; 6700 nM): -0.0395 ± 0.00071
level (log10) ([2]; 20000 nM): -0.022 ± 0.0057
level (log10) ([2]; 60000 nM): -0.0075 ± 0.023
level (log10) ([3]; 6700 nM): -0.0145 ± 0.0021
level (log10) ([3]; 20000 nM): -0.0295 ± 0.025
level (log10) ([3]; 60000 nM): 0 ± 0.059
level (log10) ([4]; 6700 nM): 0.0065 ± 0.0064
level (log10) ([4]; 20000 nM): -0.0055 ± 0.0035
level (log10) ([4]; 60000 nM): 0 ± 0.0028
level (log10) ([5]; 6700 nM): -0.005 ± 0.0014
level (log10) ([5]; 20000 nM): 0.011 ± 0.0085
level (log10) ([5]; 60000 nM): 0.0435 ± 0.016

BE3C:SRB
level (log10) ([1]; 6700 nM): 0.008 ± 0.0057
level (log10) ([1]; 20000 nM): 0.0025 ± 0.0064
level (log10) ([1]; 60000 nM): 0.011 ± 0.018
level (log10) ([2]; 6700 nM): -0.002 ± 0.0057
level (log10) ([2]; 20000 nM): -0.004
level (log10) ([2]; 60000 nM): 0.003 ± 0.0071
level (log10) ([3]; 6700 nM): -0.0005 ± 0.0021
level (log10) ([3]; 20000 nM): -0.0055 ± 0.005
level (log10) ([3]; 60000 nM): 0.006 ± 0.011
level (log10) ([4]; 6700 nM): -0.0035 ± 0.0035
level (log10) ([4]; 20000 nM): 0.0005 ± 0.005
level (log10) ([4]; 60000 nM): -0.0055 ± 0.0021
level (log10) ([5]; 6700 nM): -0.005 ± 0.0099
level (log10) ([5]; 20000 nM): -0.001 ± 0.0028
level (log10) ([5]; 60000 nM): 0.0055 ± 0.011

BE3C:tPA
level (log10) ([1]; 6700 nM): 0.0085 ± 0.019
level (log10) ([1]; 20000 nM): -0.014 ± 0.014
level (log10) ([1]; 60000 nM): 0.0325 ± 0.018
level (log10) ([2]; 6700 nM): -0.0285 ± 0.0021
level (log10) ([2]; 20000 nM): -0.0685 ± 0.011
level (log10) ([2]; 60000 nM): -0.0225 ± 0.036
level (log10) ([3]; 6700 nM): -0.0485 ± 0.00071
level (log10) ([3]; 20000 nM): -0.0395 ± 0.037
level (log10) ([3]; 60000 nM): -0.011 ± 0.052
level (log10) ([4]; 6700 nM): -0.008 ± 0.0028
level (log10) ([4]; 20000 nM): -0.0275 ± 0.016
level (log10) ([4]; 60000 nM): -0.0235 ± 0.0021
level (log10) ([5]; 6700 nM): -0.0025 ± 0.016
level (log10) ([5]; 20000 nM): 0.029 ± 0.02
level (log10) ([5]; 60000 nM): 0.05 ± 0.025

BE3C:uPA
level (log10) ([1]; 6700 nM): -0.005 ± 0.014
level (log10) ([1]; 20000 nM): -0.006 ± 0.0042
level (log10) ([1]; 60000 nM): 0.007 ± 0.02
level (log10) ([2]; 6700 nM): -0.0155 ± 0.0064
level (log10) ([2]; 20000 nM): -0.0185 ± 0.0092
level (log10) ([2]; 60000 nM): -0.003 ± 0.013
level (log10) ([3]; 6700 nM): -0.0155 ± 0.00071
level (log10) ([3]; 20000 nM): -0.0055 ± 0.0078
level (log10) ([3]; 60000 nM): 0.0005 ± 0.021
level (log10) ([4]; 6700 nM): -0.01 ± 0.0057
level (log10) ([4]; 20000 nM): -0.013 ± 0.0085
level (log10) ([4]; 60000 nM): -0.0045 ± 0.013
level (log10) ([5]; 6700 nM): -0.008 ± 0.0099
level (log10) ([5]; 20000 nM): -0.005 ± 0.0028
level (log10) ([5]; 60000 nM): 0.01 ± 0.0057

CASM3C:CCL2/MCP-1
level (log10) ([1]; 6700 nM): 0.0035 ± 0.022
level (log10) ([1]; 20000 nM): 0 ± 0.031
level (log10) ([1]; 60000 nM): 0.034 ± 0.028
level (log10) ([2]; 6700 nM): -0.0065 ± 0.013
level (log10) ([2]; 20000 nM): -0.0205 ± 0.015
level (log10) ([2]; 60000 nM): -0.0055 ± 0.04
level (log10) ([3]; 6700 nM): -0.0095 ± 0.0078
level (log10) ([3]; 20000 nM): -0.0085 ± 0.0078
level (log10) ([3]; 60000 nM): 0.017 ± 0.02
level (log10) ([4]; 6700 nM): -0.0055 ± 0.013
level (log10) ([4]; 20000 nM): -0.011 ± 0.018
level (log10) ([4]; 60000 nM): 0.015 ± 0.045
level (log10) ([5]; 6700 nM): -0.0125 ± 0.011
level (log10) ([5]; 20000 nM): -0.01
level (log10) ([5]; 60000 nM): 0.0225 ± 0.032

CASM3C:CD87/uPAR
level (log10) ([1]; 6700 nM): -0.0105 ± 0.023
level (log10) ([1]; 20000 nM): -0.025 ± 0.013
level (log10) ([1]; 60000 nM): -0.0165 ± 0.012
level (log10) ([2]; 6700 nM): -0.0255 ± 0.012
level (log10) ([2]; 20000 nM): -0.0155 ± 0.019
level (log10) ([2]; 60000 nM): -0.012 ± 0.035
level (log10) ([3]; 6700 nM): -0.023 ± 0.051
level (log10) ([3]; 20000 nM): -0.0495 ± 0.077
level (log10) ([3]; 60000 nM): -0.057 ± 0.041
level (log10) ([4]; 6700 nM): -0.0115 ± 0.015
level (log10) ([4]; 20000 nM): -0.0035 ± 0.0078
level (log10) ([4]; 60000 nM): -0.019 ± 0.017
level (log10) ([5]; 6700 nM): 0.003 ± 0.035
level (log10) ([5]; 20000 nM): 0.0145 ± 0.019
level (log10) ([5]; 60000 nM): -0.0125 ± 0.012

CASM3C:CD141/Thrombomodulin
level (log10) ([1]; 6700 nM): 0.011 ± 0.011
level (log10) ([1]; 20000 nM): 0.005 ± 0.013
level (log10) ([1]; 60000 nM): 0.0225 ± 0.029
level (log10) ([2]; 6700 nM): 0.019 ± 0.011
level (log10) ([2]; 20000 nM): 0.007 ± 0.0099
level (log10) ([2]; 60000 nM): 0.001 ± 0.02
level (log10) ([3]; 6700 nM): 0.0225 ± 0.0064
level (log10) ([3]; 20000 nM): 0.0095 ± 0.019
level (log10) ([3]; 60000 nM): 0.007 ± 0.02
level (log10) ([4]; 6700 nM): -0.008 ± 0.0042
level (log10) ([4]; 20000 nM): 0.0085 ± 0.025
level (log10) ([4]; 60000 nM): 0.0085 ± 0.0092
level (log10) ([5]; 6700 nM): -0.015 ± 0.037
level (log10) ([5]; 20000 nM): -0.0175 ± 0.063
level (log10) ([5]; 60000 nM): -0.033 ± 0.021

CASM3C:CD142/Tissue Factor
level (log10) ([1]; 6700 nM): -0.0085 ± 0.005
level (log10) ([1]; 20000 nM): -0.0415 ± 0.042
level (log10) ([1]; 60000 nM): 0.005 ± 0.073
level (log10) ([2]; 6700 nM): -0.0175 ± 0.0021
level (log10) ([2]; 20000 nM): -0.0085 ± 0.054
level (log10) ([2]; 60000 nM): -0.0095 ± 0.046
level (log10) ([3]; 6700 nM): 0.0005 ± 0.028
level (log10) ([3]; 20000 nM): -0.006 ± 0.025
level (log10) ([3]; 60000 nM): -0.034 ± 0.014
level (log10) ([4]; 6700 nM): -0.01 ± 0.017
level (log10) ([4]; 20000 nM): -0.001 ± 0.011
level (log10) ([4]; 60000 nM): -0.0075 ± 0.00071
level (log10) ([5]; 6700 nM): -0.01 ± 0.013
level (log10) ([5]; 20000 nM): -0.0345 ± 0.021
level (log10) ([5]; 60000 nM): 0.007 ± 0.02
